# System: 653999-131-R-J2-PDC complex spheroids, growth inhibition
# Test: Anticancer human tumor 653999-131-R-J2-PDC patient-derived lung adenocarcinoma cell line growth inhibition [RAS]
# Settings: for IC50: curve of first compound; for viability, T/C: stronger effect = lower value
# Outline: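 Agents were tested in combination matrices in half-log decrements from a top concentration at or near clinical Cmax (10 microM if undetermined). Targets were multi-cell spheroids of tumour lines plus HUVEC and MSC stromal cells.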
# 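Further: spheroids exposed to the agents for seven days before the readout.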
structure (smiles),measurement,setting,value
CCc1c2c(nc3ccc(O)cc13)-c1cc3c(c(=O)n1C2)COC(=O)[C@]3(O)CC + CCn1c(-c2cc(N3CCN(C)CC3)cnc2C(C)OC)c2c3cc(ccc31)-c1csc(n1)CC(NC(=O)C1CC1C)C(=O)N1CCCC(N1)C(=O)OCC(C)(C)C2,IC50,second compound 0.000949 µM,3.61 nM
same,IC50,second compound 0.003 µM,1.3 nM
same,IC50,second compound 0.00949 µM,< 0.949 nM
same,IC50,second compound 0.03 µM,< 0.949 nM
same,IC50,second compound 0.0949 µM,< 0.949 nM
same,IC50,second compound 0.3 µM,< 0.949 nM
same,"viability, T/C","second compound 0.000949 µM, first compound 0.000949 µM",70.2%
same,"viability, T/C","second compound 0.000949 µM, first compound 0.003 µM",48.4%
same,"viability, T/C","second compound 0.000949 µM, first compound 0.00949 µM",42.2%
same,"viability, T/C","second compound 0.000949 µM, first compound 0.03 µM",25.1%
same,"viability, T/C","second compound 0.000949 µM, first compound 0.0949 µM",17.2%
same,"viability, T/C","second compound 0.000949 µM, first compound 0.3 µM",11.2%
same,"viability, T/C","second compound 0.003 µM, first compound 0.000949 µM",56%
same,"viability, T/C","second compound 0.003 µM, first compound 0.003 µM",34.1%
same,"viability, T/C","second compound 0.003 µM, first compound 0.00949 µM",30.6%
same,"viability, T/C","second compound 0.003 µM, first compound 0.03 µM",17.5%
same,"viability, T/C","second compound 0.003 µM, first compound 0.0949 µM",14.7%
same,"viability, T/C","second compound 0.003 µM, first compound 0.3 µM",10.1%
same,"viability, T/C","second compound 0.00949 µM, first compound 0.000949 µM",39.1%
same,"viability, T/C","second compound 0.00949 µM, first compound 0.003 µM",27.3%
same,"viability, T/C","second compound 0.00949 µM, first compound 0.00949 µM",18.9%
same,"viability, T/C","second compound 0.00949 µM, first compound 0.03 µM",14.1%
same,"viability, T/C","second compound 0.00949 µM, first compound 0.0949 µM",9.53%
same,"viability, T/C","second compound 0.00949 µM, first compound 0.3 µM",6.56%
same,"viability, T/C","second compound 0.03 µM, first compound 0.000949 µM",29.8%
same,"viability, T/C","second compound 0.03 µM, first compound 0.003 µM",18.2%
same,"viability, T/C","second compound 0.03 µM, first compound 0.00949 µM",17.8%
same,"viability, T/C","second compound 0.03 µM, first compound 0.03 µM",9.32%
same,"viability, T/C","second compound 0.03 µM, first compound 0.0949 µM",6.76%
same,"viability, T/C","second compound 0.03 µM, first compound 0.3 µM",6.96%
same,"viability, T/C","second compound 0.0949 µM, first compound 0.000949 µM",23.9%
same,"viability, T/C","second compound 0.0949 µM, first compound 0.003 µM",15.4%
same,"viability, T/C","second compound 0.0949 µM, first compound 0.00949 µM",11.4%
same,"viability, T/C","second compound 0.0949 µM, first compound 0.03 µM",9.9%
same,"viability, T/C","second compound 0.0949 µM, first compound 0.0949 µM",7.72%
same,"viability, T/C","second compound 0.0949 µM, first compound 0.3 µM",5.39%
same,"viability, T/C","second compound 0.3 µM, first compound 0.000949 µM",21.1%
same,"viability, T/C","second compound 0.3 µM, first compound 0.003 µM",14.4%
same,"viability, T/C","second compound 0.3 µM, first compound 0.00949 µM",11.6%
same,"viability, T/C","second compound 0.3 µM, first compound 0.03 µM",9.69%
same,"viability, T/C","second compound 0.3 µM, first compound 0.0949 µM",6.54%
same,"viability, T/C","second compound 0.3 µM, first compound 0.3 µM",4.62%
C=CC(=O)Nc1cc(Nc2nccc(-c3cn(C)c4ccccc34)n2)c(OC)cc1N(C)CCN(C)C + CCn1c(-c2cccnc2C(C)OC)c2c3cc(ccc31)N1CCOC(CC(NC(=O)C(C(C)C)N(C)C(=O)C3(F)CCN(C(=O)C#CC(C)(C)N(C)C)CC3)C(=O)N3CCCC(N3)C(=O)OCC(C)(C)C2)C1,IC50,second compound 0.000949 µM,> 1000 nM
same,IC50,second compound 0.003 µM,318 nM
same,IC50,second compound 0.00949 µM,562 nM
same,IC50,second compound 0.03 µM,450 nM
same,IC50,second compound 0.0949 µM,717 nM
same,IC50,second compound 0.3 µM,697 nM
same,"viability, T/C","second compound 0.000949 µM, first compound 0.00316 µM",86.2%
same,"viability, T/C","second compound 0.000949 µM, first compound 0.01 µM",82.3%
same,"viability, T/C","second compound 0.000949 µM, first compound 0.0316 µM",97.7%
same,"viability, T/C","second compound 0.000949 µM, first compound 0.1 µM",64.7%
same,"viability, T/C","second compound 0.000949 µM, first compound 0.316 µM",64.2%
same,"viability, T/C","second compound 0.000949 µM, first compound 1 µM",49.2%
same,"viability, T/C","second compound 0.003 µM, first compound 0.00316 µM",90.1%
same,"viability, T/C","second compound 0.003 µM, first compound 0.01 µM",95.8%
same,"viability, T/C","second compound 0.003 µM, first compound 0.0316 µM",86.3%
same,"viability, T/C","second compound 0.003 µM, first compound 0.1 µM",67.1%
same,"viability, T/C","second compound 0.003 µM, first compound 0.316 µM",52.5%
same,"viability, T/C","second compound 0.003 µM, first compound 1 µM",37.8%
same,"viability, T/C","second compound 0.00949 µM, first compound 0.00316 µM",80.5%
same,"viability, T/C","second compound 0.00949 µM, first compound 0.01 µM",84.8%
same,"viability, T/C","second compound 0.00949 µM, first compound 0.0316 µM",93.2%
same,"viability, T/C","second compound 0.00949 µM, first compound 0.1 µM",85.7%
same,"viability, T/C","second compound 0.00949 µM, first compound 0.316 µM",55%
same,"viability, T/C","second compound 0.00949 µM, first compound 1 µM",45%
same,"viability, T/C","second compound 0.03 µM, first compound 0.00316 µM",87.1%
same,"viability, T/C","second compound 0.03 µM, first compound 0.01 µM",97.6%
same,"viability, T/C","second compound 0.03 µM, first compound 0.0316 µM",84.2%
same,"viability, T/C","second compound 0.03 µM, first compound 0.1 µM",82.5%
same,"viability, T/C","second compound 0.03 µM, first compound 0.316 µM",52.6%
same,"viability, T/C","second compound 0.03 µM, first compound 1 µM",43.6%
same,"viability, T/C","second compound 0.0949 µM, first compound 0.00316 µM",79.4%
same,"viability, T/C","second compound 0.0949 µM, first compound 0.01 µM",76.5%
same,"viability, T/C","second compound 0.0949 µM, first compound 0.0316 µM",115%
same,"viability, T/C","second compound 0.0949 µM, first compound 0.1 µM",89.8%
same,"viability, T/C","second compound 0.0949 µM, first compound 0.316 µM",59.6%
same,"viability, T/C","second compound 0.0949 µM, first compound 1 µM",46.1%
same,"viability, T/C","second compound 0.3 µM, first compound 0.00316 µM",78.7%
same,"viability, T/C","second compound 0.3 µM, first compound 0.01 µM",104%
same,"viability, T/C","second compound 0.3 µM, first compound 0.0316 µM",94.8%
same,"viability, T/C","second compound 0.3 µM, first compound 0.1 µM",94.1%
same,"viability, T/C","second compound 0.3 µM, first compound 0.316 µM",61.7%
same,"viability, T/C","second compound 0.3 µM, first compound 1 µM",44.6%
